The source of these data is patent US10039741B2, “Use of delta tocopherol for the treatment of lysosomal storage disorders” (The United States of America, as represented by the …, priority 2010, dated 2018).

Structures are written as SMILES. Entries after “also recorded” stand apart in the source; their conditions may differ.

What all share (format): cell-based, human
Experiment [1] relates to NPCD fibroblasts. As to the kind of experiment: Lysotracker staining assay (lysosome size). Here is the method: Lysotracker is fluorescent dye that stains acidic compartments in live cells and is well-retained after aldehyde fixation. We have optimized a lysotracker staining assay to visualize the enlarged lysosome size in the NPC skin fibroblasts by applying appropriate concentration of lysotracker dye in comparison with these normal fibroblast cells. Cells were seeded at 8000 cells/well in 100 μl medium in a black/clear bottom, tissue culture treated plate and cultured overnight or in a dedicated time. The cells were live-stained with 100 u/well 50 nM Lysotracker Red-99 dye (Invitrogen) dissolved medium at 37° C. for 1 hr followed by two-times plate wash with PBS buffer using the plate-inverted centrifugation method. The plate was then added with 100 μl/well 3.2% formaldehyde and 1 μg/ml Hoechst 33342 (Invitrogen) in PBS and incubated at room temperature for 30 minutes. After three times of plate wash with PBS buffer, samples were stored at 4° C. until imaging. Samples were photographed using an IN Cell Analyzer 1000 (GE Healthcare) with a 20× objective equipped with CCD camera. DAPI filter and TRITC filter were used to visualize Hoechst and Lysotracker red, respectively. The images were processed by Adobe Photoshop.

In experiment [2] the test system is NPCD fibroblasts. As to the kind of experiment: Filipin cholesterol staining assay. As to conditions: NPCD patient cells. Here is the method:
Filipin dye staining was used to determine the level of free cholesterol accumulation in cells (27, 28). Cells were seeded at 1000 cells/well in 100 μl medium in the black/clear bottom, tissue culture treated 96-well plates (Greiner Bio-One, Monroe, N.C.) for culture overnight or in a designated time. The cells were washed twice with the HBBS buffer and fixed with 100 μl/well 3.2% formaldehyde at room temperature for 30 minutes. After three times of plate wash with PBS buffer, cells were stained with 50 μg/ml filipin, which was freshly-dissolved in DMSO at 10 mg/ml and then diluted in PBS buffer. Samples were then washed twice with PBS buffer and stored in 4° C. On the day of imaging, cells were stained with 2 μM of CellMask Red (Invitrogen, H32711) in PBS at room temperature for 1 h. Samples were viewed and photographed using a Nikon Eclipse Ti microscope with a 20× objective equipped with CCD camera. DAPI filter and TRITC filter were used to visualize filipin and CellMask Red, respectively. The images were processed by Adobe Photoshop.

Experiment [3] has as its system NPC patient-derived skin fibroblasts. Put plainly: Amplex red cholesterol assay (free cholesterol). An excerpt: Free cholesterol accumulation in cells is a hallmark of NPC disease. The Amplex red cholesterol assay was used to screen an approved drug library in the NPC patient-derived skin fibroblasts that have free cholesterol accumulation in late endosome and lysosome. […] We then show δ-tocopherol in the filipin cholesterol staining assay, a method used clinically for NPCD diagnosis. […] Lysosome size is usually enlarged in the NPCD cells using a lysotracker staining assay.
The free cholesterol level in these cells was then measured by a cholesterol oxidase coupled HRP/amplex red detection method with a commercial available kit (Invitrogen). The cells were seeded to black, tissue culture-treated 1536-well plates (Greiner Bio-One, Monroe, N.C.) at 800 cells/well in 5 μl medium by a Multidrop Combi dispenser (Thermo Scientific, Waltham, Mass.) and cultured for 24 hours. The assay plates were added with 23 nl/well of compound DMSO solution using a pintool station (Kalypsys, San Diego, Calif.) and cultured for 3 days. The 1536-well assay plate was washed by a plate-inverted centrifugation method that removing medium by centrifuging plates upside down against a stack of paper towel at 1000 rpm for 1 min followed by addition of 7 μl/well PBS buffer, repeating for two times. The PBS buffer was added with a 45 degree angled dispenser (Kalypsys) or a Multi-Drop Combi dispenser set at medium speed to reduce disturbance to the cells. After the cell wash, 2.5 μl/well of detection mixture from the kit was added followed by 1 hour incubation at 37° C. With the addition of the detection mixture, the cells were lysed by the detergent containing buffer and free cholesterols in cell lysate were oxidized by cholesterol oxidase to produce H2O2 which reacting with amplex red dye in the presence of horseradish peroxidase to yield red fluorescence signal. A ViewLux plate reader (PerkinElmer, Boston, Mass.) was used to measure the fluorescent signal in assay plates with the excitation of 573 nm and emissions of 610 nm.

A further experiment relates to NPC1. Put plainly: Protein expression (Western blot). To be noted: NPC fibroblasts. As for the experimental part:
Cell lysates were prepared as previously described (31) and proteins in lysates were quantified using Bicinchoninic Acid (BCA) Protein Assay Kit (Sigma-Aldrich). Samples were heated at 65C for 10 min before resolved by SDS-PAGE under reducing conditions. Proteins were transferred to PVDF membranes (Bio-Rad Laboratory) using either Criterion Blotter (Bio-Rad Laboratory) or iBlot dry blotting devices (Invitrogen). For NPC1 and HMG-CoA reductase detection, rabbit polyclonal antibodies against NPC1 (Abcam, cat #ab36983, 1:2000) or HMG-CoA reductase (Millipore, cat #07-457, 1:1000) were used, respectively. A peroxidase-conjugated donkey anti-rabbit IgG (Santa Cruz) was used as secondary antibody at a 1:500 dilution.
(In general: A western blot detects proteins with antibodies after separation by electrophoresis.)

Experiment [4] deals with Niemann Pick type A disease fibroblasts. As to the kind of experiment: Lysotracker staining assay.
In the next experiment the test system is NPCD MSC cells. Put plainly: Free cholesterol accumulation. As for the experimental part: The adipose mesenchymal stem cells (HMSC.AD-100, HMSC-NPC22 and HMSC-NPC23) were isolated from two NPC patients as well as one heath individual and provided by Celleng-tech (Coralville, Iowa). These cells were maintained in MSC expansion media (Celleng-tech, cat# HMSC.E.Media-450) supplemented with 10% FBS 100 unit/ml penicillin and 100 μg/ml streptomycin at 5% CO2, 37° C. For neural differentiation, cells were initially plated at 30% confluency (˜2500 cells/cm^2) using MSC expansion media. After 24 hours, MSC expansion media were withdrew. Cells were washed twice with Dulbecco's phosphate Buffer saline (Invitrogen) and incubated with neural differentiation media (Celleng-tech, cat# NEU.D.Media-450) supplemented with 10% FBS, 100 unit/ml penicillin and 100 μg/ml streptomycin at 5% CO2, 37° C. for additional 3 days.
MSC cells were seeded on coverslips on day 0 in MSC expansion medium. On day 1, cells were washed twice with warm PBS buffer and then incubated with MSC neuronal differentiation medium. On day 4, media were replaced with fresh neuronal differentiation medium. On day 6, cells were fixed with 3.2% paraformaldehyde in HBSS for 15 min. Immunocytochemistry for neuronal beta III tubulin and unesterified cholesterol (filipin staining) was performed as described. The coverslips were examined y a XXX microscope. […]

[5] abbreviates: 9 additional fibroblast primary cells from different NPCD patients.

As for `Cc1cc(O)cc2c1O[C@](C)(CCC[C@H](C)CCC[C@H](C)CCCC(C)C)CC2` [δ-tocopherol], in the experiment on NPCD fibroblasts [1] (setting [5]), the “effect on lysosome size decrease” value is on record as “confirmed”. In the experiment with NPCD fibroblasts [1] (NPCD fibroblasts), the enlarged lysosome size entry is “decreased and shrunken to the size similar to the wild type cells”. Further, the “free cholesterol accumulation (filipin staining)” value in the experiment with NPCD fibroblasts [2] is recorded as “significantly reduced”. In addition, the “effect compared with α-tocopherol” value was “more potent than that of α-tocopherol” in experiment [3] (setting [5]) and “more potent than α-tocopherol at 80 μM” in experiment [3] (δ-tocopherol at 40 μM, NPC fibroblasts). In addition, the “effect on cholesterol reduction” value in experiment [3] (setting [5]) is “confirmed”. Besides, the “cholesterol amount (cholesterol reduction)” value in experiment [3] (NPCD fibroblasts) is on record as “significantly reduced”. Also, in experiment [3] (free cholesterol amount, filipin staining, lysotracker staining, NPCD fibroblasts), the “potency compared with the other vitamin E isoforms” value is “most potent of the eight isoforms of vitamin E; also recorded: more significant and potent than any of the other vitamin E isoforms”. The “expression of NPC-1 protein” value in the experiment with NPC1 is listed as “not changed”; in the experiment on NPC1 (listed as Delta-tocopherol), “did not change”. Also, the “size of enlarged lysosomes” value in experiment [4] is “significantly reduced”. The accumulated free cholesterol entry in the experiment with NPCD MSC cells was “reduction of accumulated free cholesterol”.
